Broadly, the MIC is the lowest concentration that inhibits growth of the organism.

Molecules are shown by their SMILES. ≈ marks a conversion by molar mass, not a printed value.

What all share (format): functional
What all share (conditions): time 7-10 day

In assay [1] the test system is Mycobacterium tuberculosis. Description: Antitubercular activity against INH/RIF-resistant Mycobacterium tuberculosis clinical isolate M6 assessed as inhibition of bacterial growth incubated for 7 to 10 days by Alamar Blue staining based analysis. (In general: The colour change of resazurin is a common sign of viable cells or microbes.)
Assay [2] relates to Mycobacterium tuberculosis. Description: Antitubercular activity against INH/RIF-resistant Mycobacterium tuberculosis clinical isolate M7 assessed as inhibition of bacterial growth incubated for 7 to 10 days by Alamar Blue staining based analysis.
The test system of assay [3] is Mycobacterium tuberculosis. Description: Antitubercular activity against INH/RIF-resistant Mycobacterium tuberculosis clinical isolate M15 assessed as inhibition of bacterial growth incubated for 7 to 10 days by Alamar Blue staining based analysis.
The subject of assay [4] is Mycobacterium tuberculosis. Put plainly: Antitubercular activity against INH/RIF-resistant Mycobacterium tuberculosis clinical isolate M34 assessed as inhibition of bacterial growth incubated for 7 to 10 days by Alamar Blue staining based analysis.

In the case of `NNC(=O)c1ccncc1` [ISONIAZID], the MIC was determined as 8 mg/L (≈ 58.3 µM) in assay [1], 8 mg/L (≈ 58.3 µM) in assay [2], 4 mg/L (≈ 29.2 µM) in assay [3] and 8 mg/L (≈ 58.3 µM) in assay [4].
`CO[C@H]1/C=C/O[C@@]2(C)Oc3c(C)c(O)c4c(O)c(c(/C=N/N5CCN(C)CC5)c(O)c4c3C2=O)NC(=O)/C(C)=C\C=C\[C@H](C)[C@H](O)[C@@H](C)[C@@H](O)[C@@H](C)[C@H](OC(C)=O)[C@@H]1C` [RIFAMPIN]: the MIC was 16 mg/L (≈ 19.4 µM) in assay [1], 8 mg/L (≈ 9.72 µM) in assay [2], greater than 64 mg/L in assay [3] and 16 mg/L (≈ 19.4 µM) in assay [4].
With `CC1(C)c2c[nH]c3cccc(c23)S[C@H]1C(=O)O`, the minimum inhibitory concentration (MIC) in assay [1] worked out at 12.5 mg/L (≈ 50.5 µM); in assay [2], 25 mg/L (≈ 101 µM); in assay [3] it was 12.5 mg/L (≈ 50.5 µM); in assay [4], 25 mg/L (≈ 101 µM).
Turning to `O=C(O)[C@H]1Cc2c[nH]c3cccc(c23)S1`, the minimum inhibitory concentration (MIC) in assay [1], in assay [2], in assay [3] and in assay [4] was 0.78 mg/L (≈ 3.56 µM) throughout.
As for `C[C@H]1c2c[nH]c3cccc(c23)S[C@H]1C(=O)O` [CHUANGXINMYCIN], the MIC came to 0.78 mg/L (≈ 3.34 µM) in assay [1], 0.78 mg/L (≈ 3.34 µM) in assay [2], 1.56 mg/L (≈ 6.69 µM) in assay [3] and 3.12 mg/L (≈ 13.4 µM) in assay [4].

These data come from ChEMBL document CHEMBL5226381, “Iterative Methylation Leads to 3-Methylchuangxinmycin Production in Actinoplanes tsinanensis CPCC 200056” (2023).
